The record followed here is patent US10927123B2, “Modulators of the beta-3 adrenergic receptor useful for the treatment or prevention of disorders related thereto” (Arena Pharmaceuticals, Inc., priority 2016, dated 2021).

This experiment concerns the target Beta-3 Adrenergic Receptor (Homo sapiens (Human), UniProt P13945). Briefly: HTRF cAMP antagonist assay (IC50 determination). It is filed as cell-based. Conditions: CHO-K1 cells stably expressing recombinant receptor; antagonism of isoproterenol at EC90; cAMP readout. Summed up:
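CHO-K1 cells stably expressing the recombinant receptor were preincubated with compound (10-point, 5-fold dilutions; top final typically 10 or 100 μM) in PBS with 1 mM IBMX, then stimulated with isoproterenol at its EC90 for 1 h at room temperature. cAMP was read by HTRF against an on-plate standard curve.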
Background: In TR-FRET formats the signal depends on donor and acceptor labels being close together.

Each structure is given as a SMILES string.

Sequence of Beta-3 Adrenergic Receptor (P13945 whole entry, species assumed): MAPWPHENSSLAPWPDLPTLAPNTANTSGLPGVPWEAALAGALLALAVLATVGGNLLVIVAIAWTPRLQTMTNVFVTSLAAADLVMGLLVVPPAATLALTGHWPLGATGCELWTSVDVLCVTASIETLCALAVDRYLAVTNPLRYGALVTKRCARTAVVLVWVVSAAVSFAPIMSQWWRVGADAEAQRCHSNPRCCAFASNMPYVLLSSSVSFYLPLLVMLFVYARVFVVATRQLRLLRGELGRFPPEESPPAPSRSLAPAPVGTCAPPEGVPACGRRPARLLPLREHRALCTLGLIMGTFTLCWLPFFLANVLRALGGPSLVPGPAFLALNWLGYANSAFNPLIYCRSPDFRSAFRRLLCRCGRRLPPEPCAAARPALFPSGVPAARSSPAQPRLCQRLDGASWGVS

Turning to `COc1ccc(S(=O)(=O)N2CCC3(CC2)C[C@@H](NC[C@H](O)COc2cccc(S(=O)(=O)C4(CO)CC4)c2)CO3)cc1-c1ccc(C2(N)CC2)cc1` [Compound 199, (S)-1-((R)-8-(4′-(1-aminocyclopropyl)-6-methoxybiphenyl-3-ylsulfonyl)-1-oxa-8-azaspiro[4.5]decan-3-ylamino)-3-(3-(1-(hydroxymethyl)cyclopropylsulfonyl)phenoxy)propan-2-ol], the IC50 was 25 nM.
`CC(C)(CN)c1ccc(-c2cccc(S(=O)(=O)N3CCC4(CC3)C[C@@H](NC[C@H](O)COc3cccc(S(=O)(=O)C5(CO)CC5)c3)CO4)c2)cc1` [Compound 181, (S)-1-((R)-8-(4′-(1-amino-2-methylpropan-2-yl)biphenyl-3-ylsulfonyl)-1-oxa-8-azaspiro[4.5]decan-3-ylamino)-3-(3-(1-(hydroxymethyl)cyclopropylsulfonyl)phenoxy)propan-2-ol]: the IC50 is 180 nM.
The value for `NCc1ccc(-c2cccc(S(=O)(=O)N3CCC4(CC3)C[C@H](NC[C@H](O)COc3cccc(S(=O)(=O)C5(CO)CC5)c3)CO4)c2)cc1` [Compound 164, (S)-1-((S)-8-(4′-(aminomethyl)biphenyl-3-ylsulfonyl)-1-oxa-8-azaspiro[4.5]decan-3-ylamino)-3-(3-(1-(hydroxymethyl)cyclopropylsulfonyl)phenoxy)propan-2-ol] was 27.7 nM; that for `Cc1ccc(-c2cccc(S(=O)(=O)N3CCC4(CC3)C[C@@H](NC[C@H](O)COc3cccc(S(=O)(=O)C5(CO)CC5)c3)CO4)c2)cc1` [Compound 170, (S)-1-(3-(1-(hydroxymethyl)cyclopropylsulfonyl)phenoxy)-3-((R)-8-(4′-methylbiphenyl-3-ylsulfonyl)-1-oxa-8-azaspiro[4.5]decan-3-ylamino)propan-2-ol] was 416 nM; that for `CS(=O)(=O)c1cccc(OC[C@@H](O)CNC2COC3(CCN(S(=O)(=O)c4cccc(-c5cncnc5)c4)CC3)C2)c1` (stereo partly drawn) [Compound 71, (2S)-1-(3-(methylsulfonyl)phenoxy)-3-(8-(3-(pyrimidin-5-yl)phenylsulfonyl)-1-oxa-8-azaspiro[4.5]decan-3-ylamino)propan-2-ol] was 39 nM.
For the compound `CN1CCOc2cc(S(=O)(=O)N3CCC4(CC3)C[C@@H](NC[C@H](O)COc3cccc(S(=O)(=O)C5(CO)CC5)c3)CO4)cnc21` [Compound 286, (S)-1-(3-(1-(hydroxymethyl)cyclopropylsulfonyl)phenoxy)-3-((R)-8-(4-methyl-3,4-dihydro-2H-pyrido[3,2-b][1,4]oxazin-7-ylsulfonyl)-1-oxa-8-azaspiro[4.5]decan-3-ylamino)propan-2-ol], the IC50 was 56.9 nM.
On to `Cc1ccc2ncc(S(=O)(=O)N3CCC4(CC3)C[C@@H](NC[C@H](O)COc3cccc(S(=O)(=O)C5CC5)c3)CO4)c(O)c2c1` [Compound 324, 3-((R)-3-((S)-3-(3-(cyclopropylsulfonyl)phenoxy)-2-hydroxypropylamino)-1-oxa-8-azaspiro[4.5]decan-8-ylsulfonyl)-6-methylquinolin-4-ol], for which the IC50 is 22.5 nM.
As for `O=S(=O)(c1cccnc1)N1CCC2(CC1)C[C@H](NC[C@H](O)COc1cccc(S(=O)(=O)C3(CO)CC3)c1)CO2` [Compound 202, (S)-1-(3-(1-(hydroxymethyl)cyclopropylsulfonyl)phenoxy)-3-((S)-8-(pyridin-3-ylsulfonyl)-1-oxa-8-azaspiro[4.5]decan-3-ylamino)propan-2-ol], the IC50 came out at 346 nM.
Consider `CN1CCOc2cc(S(=O)(=O)N3CCC4(CC3)C[C@@H](NC[C@H](O)COc3cccc(S(=O)(=O)C5CC5)c3)CO4)cnc21` [Compound 290, (S)-1-(3-(cyclopropylsulfonyl)phenoxy)-3-((R)-8-(4-methyl-3,4-dihydro-2H-pyrido[3,2-b][1,4]oxazin-7-ylsulfonyl)-1-oxa-8-azaspiro[4.5]decan-3-ylamino)propan-2-ol], for which the IC50 was 34.2 nM.
In the case of `NCCS(=O)(=O)c1cccc(OC[C@@H](O)CNC2COC3(CCN(S(=O)(=O)c4ccc5ccccc5c4)CC3)C2)c1` (stereo partly drawn) [Compound 22, (2S)-1-(3-(2-aminoethylsulfonyl)phenoxy)-3-(8-(naphthalen-2-ylsulfonyl)-1-oxa-8-azaspiro[4.5]decan-3-ylamino)propan-2-ol], the IC50 turned out to be 302 nM.
Then `Cc1ccnc(-c2cccc(S(=O)(=O)N3CCC4(CC3)C[C@@H](NC[C@H](O)COc3cccc(S(=O)(=O)CCO)c3)CO4)c2)c1` [Compound 129, (S)-1-(3-(2-hydroxyethylsulfonyl)phenoxy)-3-((R)-8-(3-(4-methylpyridin-2-yl)phenylsulfonyl)-1-oxa-8-azaspiro[4.5]decan-3-ylamino)propan-2-ol], with 485 nM; and `CS(=O)(=O)c1cccc(OC[C@@H](O)CNC2COC3(CCN(S(=O)(=O)c4ccc5occc5c4)CC3)C2)c1` (stereo partly drawn) [Compound 61, (2S)-1-(8-(benzofuran-5-ylsulfonyl)-1-oxa-8-azaspiro[4.5]decan-3-ylamino)-3-(3-(methylsulfonyl)phenoxy)propan-2-ol], with 29.8 nM.
`COc1ccc(S(=O)(=O)N2CCC3(CC2)C[C@H](NC[C@H](O)COc2cccc(S(=O)(=O)C4CC4)c2)CO3)cc1-c1ccc(CN)cc1` [Compound 227, (S)-1-((S)-8-(4′-(aminomethyl)-6-methoxybiphenyl-3-ylsulfonyl)-1-oxa-8-azaspiro[4.5]decan-3-ylamino)-3-(3-(cyclopropylsulfonyl)phenoxy)propan-2-ol]: the IC50 turned out to be 17.9 nM.
Consider `NC1(c2ccc(-c3cc(S(=O)(=O)N4CCC5(CC4)C[C@@H](NC[C@H](O)COc4cccc(S(=O)(=O)C6(CO)CC6)c4)CO5)ccc3F)cc2)CC1` [Compound 217, (S)-1-((R)-8-(4′-(1-aminocyclopropyl)-6-fluorobiphenyl-3-ylsulfonyl)-1-oxa-8-azaspiro[4.5]decan-3-ylamino)-3-(3-(1-(hydroxymethyl)cyclopropylsulfonyl)phenoxy)propan-2-ol], for which the IC50 was found to be 28.4 nM.
As for `NCc1ccc(-c2ccc(S(=O)(=O)N3CCC4(CC3)C[C@@H](NC[C@H](O)COc3cccc(S(=O)(=O)CCO)c3)CO4)cc2)cc1` [Compound 103, (S)-1-((R)-8-(4′-(aminomethyl)biphenyl-4-ylsulfonyl)-1-oxa-8-azaspiro[4.5]decan-3-ylamino)-3-(3-(2-hydroxyethylsulfonyl)phenoxy)propan-2-ol], the IC50 came to 1200 nM.
As to `O=S(=O)(c1cnc2ccccc2c1)N1CCC2(CC1)C[C@@H](NC[C@H](O)COc1cccc(S(=O)(=O)C3(CO)CC3)c1)CO2` [Compound 136, (S)-1-(3-(1-(hydroxymethyl)cyclopropylsulfonyl)phenoxy)-3-((R)-8-(quinolin-3-ylsulfonyl)-1-oxa-8-azaspiro[4.5]decan-3-ylamino)propan-2-ol], the IC50 stood at 18.8 nM.
Then `O=S(=O)(CCC(F)(F)F)c1cccc(OC[C@@H](O)CNC2COC3(CCN(S(=O)(=O)c4ccc5ccccc5c4)CC3)C2)c1` (stereo partly drawn) [Compound 9, (2S)-1-(8-(naphthalen-2-ylsulfonyl)-1-oxa-8-azaspiro[4.5]decan-3-ylamino)-3-(3-(3,3,3-trifluoropropylsulfonyl)phenoxy)propan-2-ol], with 24.2 nM.
With `CC(C)CS(=O)(=O)c1cccc(OC[C@@H](O)CN[C@H]2COC3(CCN(S(=O)(=O)c4cnc5ccccc5c4)CC3)C2)c1` [Compound 124, (S)-1-(3-(isobutylsulfonyl)phenoxy)-3-((R)-8-(quinolin-3-ylsulfonyl)-1-oxa-8-azaspiro[4.5]decan-3-ylamino)propan-2-ol], the IC50 came out at 78.2 nM.

Broadly, the IC50 is the concentration that gives 50% inhibition.
